According to ChEMBL document CHEMBL4251634, “Synthesis and antimicrobial activity of pyrimidinyl 1,3,4-oxadiazoles, 1,3,4-thiadiazoles and 1,2,4-triazoles” (2018):

How the values were obtained:
Assay type in all cases: functional
Klebsiella pneumoniae [1] = test: Antibacterial activity against Klebsiella pneumoniae assessed as diameter of inhibition zone at 100 ug/well after 24 hrs by agar well diffusion method; details: read-out: DIZ
Penicillium chrysogenum [2] = test: Antifungal activity against Penicillium chrysogenum assessed as diameter of inhibition zone at 25 ug/well after 48 hrs by agar well diffusion method; details: read-out: DIZ
Staphylococcus aureus [3] = test: Antibacterial activity against Staphylococcus aureus assessed as diameter of inhibition zone at 12.5 ug/well after 24 hrs by agar well diffusion method; details: read-out: DIZ
Pseudomonas aeruginosa [4] = test: Bactericidal activity against Pseudomonas aeruginosa incubated for 24 hrs followed by regrowth on sterile nutrient broth for 24 hrs
Staphylococcus aureus [5] = test: Antibacterial activity against Staphylococcus aureus assessed as diameter of inhibition zone at 25 ug/well after 24 hrs by agar well diffusion method; details: read-out: DIZ
Klebsiella pneumoniae [6] = test: Antibacterial activity against Klebsiella pneumoniae after 24 hrs by turbidity-based broth dilution assay
Klebsiella pneumoniae [7] = test: Antibacterial activity against Klebsiella pneumoniae assessed as diameter of inhibition zone at 50 ug/well after 24 hrs by agar well diffusion method; details: read-out: DIZ
Aspergillus niger [8] = test: Antifungal activity against Aspergillus niger after 48 hrs by turbidity-based broth dilution assay
Staphylococcus aureus [9] = test: Antibacterial activity against Staphylococcus aureus after 24 hrs by turbidity-based broth dilution assay
Klebsiella pneumoniae [10] = test: Antibacterial activity against Klebsiella pneumoniae assessed as diameter of inhibition zone at 25 ug/well after 24 hrs by agar well diffusion method; details: read-out: DIZ
Klebsiella pneumoniae [11] = test: Antibacterial activity against Klebsiella pneumoniae assessed as diameter of inhibition zone at 12.5 ug/well after 24 hrs by agar well diffusion method; details: read-out: DIZ
Staphylococcus aureus [12] = test: Antibacterial activity against Staphylococcus aureus assessed as diameter of inhibition zone at 50 ug/well after 24 hrs by agar well diffusion method; details: read-out: DIZ
Aspergillus niger [13] = test: Antifungal activity against Aspergillus niger assessed as diameter of inhibition zone at 25 ug/well after 48 hrs by agar well diffusion method; details: read-out: DIZ
Bacillus subtilis [14] = test: Bactericidal activity against Bacillus subtilis incubated for 24 hrs followed by regrowth on sterile nutrient broth for 24 hrs; parameters: unit not given here
Pseudomonas aeruginosa [15] = test: Antibacterial activity against Pseudomonas aeruginosa assessed as diameter of inhibition zone at 12.5 ug/well after 24 hrs by agar well diffusion method; details: read-out: DIZ
Bacillus subtilis [16] = test: Antibacterial activity against Bacillus subtilis assessed as diameter of inhibition zone at 25 ug/well after 24 hrs by agar well diffusion method; details: read-out: DIZ
Aspergillus niger [17] = test: Antifungal activity against Aspergillus niger assessed as diameter of inhibition zone at 100 ug/well after 48 hrs by agar well diffusion method; details: read-out: DIZ
Bacillus subtilis [18] = test: Antibacterial activity against Bacillus subtilis assessed as diameter of inhibition zone at 50 ug/well after 24 hrs by agar well diffusion method; details: read-out: DIZ
Bacillus subtilis [19] = test: Antibacterial activity against Bacillus subtilis assessed as diameter of inhibition zone at 100 ug/well after 24 hrs by agar well diffusion method; details: read-out: DIZ
Staphylococcus aureus [20] = test: Antibacterial activity against Staphylococcus aureus assessed as diameter of inhibition zone at 100 ug/well after 24 hrs by agar well diffusion method; details: read-out: DIZ
Pseudomonas aeruginosa [21] = test: Antibacterial activity against Pseudomonas aeruginosa assessed as diameter of inhibition zone at 25 ug/well after 24 hrs by agar well diffusion method; details: read-out: DIZ
Aspergillus niger [22] = test: Ratio of MFC to MIC for Aspergillus niger
Pseudomonas aeruginosa [23] = test: Antibacterial activity against Pseudomonas aeruginosa assessed as diameter of inhibition zone at 50 ug/well after 24 hrs by agar well diffusion method; details: read-out: DIZ
Staphylococcus aureus [24] = test: Bactericidal activity against Staphylococcus aureus incubated for 24 hrs followed by regrowth on sterile nutrient broth for 24 hrs
Klebsiella pneumoniae [25] = test: Bactericidal activity against Klebsiella pneumoniae incubated for 24 hrs followed by regrowth on sterile nutrient broth for 24 hrs
Penicillium chrysogenum [26] = test: Antifungal activity against Penicillium chrysogenum after 48 hrs by turbidity-based broth dilution assay
Aspergillus niger [27] = test: Antifungal activity against Aspergillus niger assessed as diameter of inhibition zone at 12.5 ug/well after 48 hrs by agar well diffusion method; details: read-out: DIZ
Pseudomonas aeruginosa [28] = test: Antibacterial activity against Pseudomonas aeruginosa after 24 hrs by turbidity-based broth dilution assay
Aspergillus niger [29] = test: Antifungal activity against Aspergillus niger assessed as diameter of inhibition zone at 50 ug/well after 48 hrs by agar well diffusion method; details: read-out: DIZ
Penicillium chrysogenum [30] = test: Antifungal activity against Penicillium chrysogenum assessed as diameter of inhibition zone at 50 ug/well after 48 hrs by agar well diffusion method; details: read-out: DIZ
Aspergillus niger [31] = test: Fungicidal activity against Aspergillus niger incubated for 48 hrs followed by regrowth on PDA plates for 48 hrs
Penicillium chrysogenum [32] = test: Fungicidal activity against Penicillium chrysogenum incubated for 48 hrs followed by regrowth on PDA plates for 48 hrs
Penicillium chrysogenum [33] = test: Antifungal activity against Penicillium chrysogenum assessed as diameter of inhibition zone at 12.5 ug/well after 48 hrs by agar well diffusion method; details: read-out: DIZ
Pseudomonas aeruginosa [34] = test: Antibacterial activity against Pseudomonas aeruginosa assessed as diameter of inhibition zone at 100 ug/well after 24 hrs by agar well diffusion method; details: read-out: DIZ
Bacillus subtilis [35] = test: Antibacterial activity against Bacillus subtilis assessed as diameter of inhibition zone at 12.5 ug/well after 24 hrs by agar well diffusion method; details: read-out: DIZ
Penicillium chrysogenum [36] = test: Antifungal activity against Penicillium chrysogenum assessed as diameter of inhibition zone at 100 ug/well after 48 hrs by agar well diffusion method; details: read-out: DIZ
Pseudomonas aeruginosa [37] = test: Ratio of MBC to MIC for Pseudomonas aeruginosa

SMILES | zone of inhibition at 100 µg/disc (Klebsiella pneumoniae [1]) [mm] | zone of inhibition at 25 µg/disc (Penicillium chrysogenum [2]) [mm] | zone of inhibition at 12.5 µg/disc (Staphylococcus aureus [3]) [mm] | MBC (Pseudomonas aeruginosa [4]) [µg] | zone of inhibition at 25 µg/disc (Staphylococcus aureus [5]) [mm] | MIC (Klebsiella pneumoniae [6]) [µg] | zone of inhibition at 50 µg/disc (Klebsiella pneumoniae [7]) [mm] | MIC (Aspergillus niger [8]) [µg] | MIC (Staphylococcus aureus [9]) [µg] | zone of inhibition at 25 µg/disc (Klebsiella pneumoniae [10]) [mm] | zone of inhibition at 12.5 µg/disc (Klebsiella pneumoniae [11]) [mm] | zone of inhibition at 50 µg/disc (Staphylococcus aureus [12]) [mm] | zone of inhibition at 25 µg/disc (Aspergillus niger [13]) [mm] | zone of inhibition at 100 µg/disc (Aspergillus niger [17]) [mm] | MIC (Penicillium chrysogenum [26]) [µg] | zone of inhibition at 12.5 µg/disc (Aspergillus niger [27]) [mm] | zone of inhibition at 50 µg/disc (Aspergillus niger [29]) [mm] | zone of inhibition at 50 µg/disc (Penicillium chrysogenum [30]) [mm] | zone of inhibition at 12.5 µg/disc (Penicillium chrysogenum [33]) [mm] | zone of inhibition at 100 µg/disc (Penicillium chrysogenum [36]) [mm] | other results
Cc1cc(SCc2nnc(-c3ccc([N+](=O)[O-])cc3)n2N)nc(SCc2nnc(-c3ccc([N+](=O)[O-])cc3)n2N)n1 | 32 | 25 | 13 | 50 | 15 | 25 | 29 | 6.25 | 100 | 27 | 25 | 17 | 35 | 40 | 25 | 33 | 37 | 27 | 23 | 31 | MBC (Bacillus subtilis [14]): 200; zone of inhibition at 12.5 µg/disc (Pseudomonas aeruginosa [15]): 23 mm; zone of inhibition at 25 µg/disc (Bacillus subtilis [16]): 20 mm; zone of inhibition at 50 µg/disc (Bacillus subtilis [18]): 22 mm; zone of inhibition at 100 µg/disc (Bacillus subtilis [19]): 26 mm; zone of inhibition at 100 µg/disc (Staphylococcus aureus [20]): 19 mm; zone of inhibition at 25 µg/disc (Pseudomonas aeruginosa [21]): 26 mm; Ratio (Aspergillus niger [22]): 2; zone of inhibition at 50 µg/disc (Pseudomonas aeruginosa [23]): 28 mm; MBC (Staphylococcus aureus [24]): >200 µg; MBC (Klebsiella pneumoniae [25]): 100 µg; MIC (Pseudomonas aeruginosa [28]): 12.5 µg; MFC (Aspergillus niger [31]): 12.5 µg; MFC (Penicillium chrysogenum [32]): 100 µg; zone of inhibition at 100 µg/disc (Pseudomonas aeruginosa [34]): 31 mm; zone of inhibition at 12.5 µg/disc (Bacillus subtilis [35]): 18 mm
CC(=O)N1CCN(c2ccc(OCC3COC(Cn4ccnc4)(c4ccc(Cl)cc4Cl)O3)cc2)CC1 (stereo not drawn) [KETOCONAZOLE] |  | 36 |  |  |  |  |  | 6.25 |  |  |  |  | 31 | 37 | 12.5 | 29 | 34 | 37 | 34 | 39 | 
Cc1cc(SCc2nnc(-c3ccc(Cl)cc3)s2)nc(SCc2nnc(-c3ccc(Cl)cc3)s2)n1 | 35 | 17 | 15 | 12.5 | 17 | 12.5 | 32 | 12.5 | 50 | 30 | 28 | 19 | 26 | 31 | 50 | 24 | 28 | 19 | 15 | 22 | Ratio (Pseudomonas aeruginosa [37]): 2; MBC (Bacillus subtilis [14]): 100; zone of inhibition at 12.5 µg/disc (Pseudomonas aeruginosa [15]): 26 mm; zone of inhibition at 25 µg/disc (Bacillus subtilis [16]): 23 mm; zone of inhibition at 50 µg/disc (Bacillus subtilis [18]): 26 mm; zone of inhibition at 100 µg/disc (Bacillus subtilis [19]): 29 mm; zone of inhibition at 100 µg/disc (Staphylococcus aureus [20]): 21 mm; zone of inhibition at 25 µg/disc (Pseudomonas aeruginosa [21]): 29 mm; zone of inhibition at 50 µg/disc (Pseudomonas aeruginosa [23]): 32 mm; MBC (Staphylococcus aureus [24]): 200 µg; MBC (Klebsiella pneumoniae [25]): 50 µg; MIC (Pseudomonas aeruginosa [28]): 6.25 µg; MFC (Aspergillus niger [31]): 50 µg; MFC (Penicillium chrysogenum [32]): 200 µg; zone of inhibition at 100 µg/disc (Pseudomonas aeruginosa [34]): 34 mm; zone of inhibition at 12.5 µg/disc (Bacillus subtilis [35]): 21 mm
Cc1cc(SCc2nnc(-c3ccc([N+](=O)[O-])cc3)s2)nc(SCc2nnc(-c3ccc([N+](=O)[O-])cc3)s2)n1 | 38 | 22 | 16 | 12.5 | 18 | 12.5 | 35 | 12.5 | 50 | 33 | 31 | 20 | 29 | 35 | 50 | 27 | 32 | 24 | 20 | 26 | Ratio (Pseudomonas aeruginosa [37]): 2; MBC (Bacillus subtilis [14]): 100; zone of inhibition at 12.5 µg/disc (Pseudomonas aeruginosa [15]): 28 mm; zone of inhibition at 25 µg/disc (Bacillus subtilis [16]): 24 mm; zone of inhibition at 50 µg/disc (Bacillus subtilis [18]): 27 mm; zone of inhibition at 100 µg/disc (Bacillus subtilis [19]): 31 mm; zone of inhibition at 100 µg/disc (Staphylococcus aureus [20]): 23 mm; zone of inhibition at 25 µg/disc (Pseudomonas aeruginosa [21]): 31 mm; zone of inhibition at 50 µg/disc (Pseudomonas aeruginosa [23]): 33 mm; MBC (Staphylococcus aureus [24]): 200 µg; MBC (Klebsiella pneumoniae [25]): 50 µg; MIC (Pseudomonas aeruginosa [28]): 6.25 µg; MFC (Aspergillus niger [31]): 50 µg; MFC (Penicillium chrysogenum [32]): 200 µg; zone of inhibition at 100 µg/disc (Pseudomonas aeruginosa [34]): 35 mm; zone of inhibition at 12.5 µg/disc (Bacillus subtilis [35]): 22 mm
